Results as given in publication PMC6278313.
Like-named read-outs stand apart in the source and are kept apart here.

Experiments:
COX-2 [1] = target: T1, COX-2 (Macaca mulatta, UniProt F7BWZ9); test: COX-2 inhibition, monkey whole blood (Prostaglandin E2 EIA)
T1 sequence (F7BWZ9 18-604): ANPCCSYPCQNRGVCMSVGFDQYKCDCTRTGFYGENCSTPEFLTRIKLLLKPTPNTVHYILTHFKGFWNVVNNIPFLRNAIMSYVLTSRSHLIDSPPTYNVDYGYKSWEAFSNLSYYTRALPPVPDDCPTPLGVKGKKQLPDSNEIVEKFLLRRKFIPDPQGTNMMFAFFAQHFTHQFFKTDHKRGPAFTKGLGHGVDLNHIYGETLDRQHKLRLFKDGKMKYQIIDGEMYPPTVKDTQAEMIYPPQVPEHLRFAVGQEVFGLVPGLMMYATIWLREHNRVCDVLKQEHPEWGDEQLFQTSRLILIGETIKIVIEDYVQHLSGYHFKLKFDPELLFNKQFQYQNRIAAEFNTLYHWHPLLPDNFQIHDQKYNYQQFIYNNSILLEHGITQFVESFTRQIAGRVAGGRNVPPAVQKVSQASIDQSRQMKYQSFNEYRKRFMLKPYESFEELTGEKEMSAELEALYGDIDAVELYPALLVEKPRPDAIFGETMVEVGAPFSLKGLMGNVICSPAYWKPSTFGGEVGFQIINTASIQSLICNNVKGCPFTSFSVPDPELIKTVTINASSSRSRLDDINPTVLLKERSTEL

benzodiazepine (BzP) = test: NIMH-PDSP radioligand binding screen, benzodiazepine site; parameters: species or system rat; details: 10 μM
[2] = target: DAT (dopamine transporter) (Homo sapiens, UniProt Q01959); test: NIMH-PDSP radioligand binding screen, DAT; details: read-out: inhibition of radioligand binding at DAT
human COX-2 = details: cited from earlier work
COX-1 [3] = target: T2, COX-1 (Homo sapiens, UniProt P23219); test: COX-1 inhibition, human whole blood (Thromboxane B2 EIA)
COX-1 [4] = target: T2, COX-1; parameters: endogenous in cells; host or cells: fresh human whole blood; details: footnote c; SE <15%; read-out: IC50 COX-1 Human WB (literature); cited from earlier work
5-HT1B = 5-HT1B (Homo sapiens, UniProt P28222); test: NIMH-PDSP radioligand binding screen, 5-HT1B
COX-1 [5] = target: T3, COX-1 (Macaca mulatta, UniProt F6S984); test: COX-1 inhibition, monkey whole blood (Thromboxane B2 EIA)
T3 sequence (F6S984 25-599): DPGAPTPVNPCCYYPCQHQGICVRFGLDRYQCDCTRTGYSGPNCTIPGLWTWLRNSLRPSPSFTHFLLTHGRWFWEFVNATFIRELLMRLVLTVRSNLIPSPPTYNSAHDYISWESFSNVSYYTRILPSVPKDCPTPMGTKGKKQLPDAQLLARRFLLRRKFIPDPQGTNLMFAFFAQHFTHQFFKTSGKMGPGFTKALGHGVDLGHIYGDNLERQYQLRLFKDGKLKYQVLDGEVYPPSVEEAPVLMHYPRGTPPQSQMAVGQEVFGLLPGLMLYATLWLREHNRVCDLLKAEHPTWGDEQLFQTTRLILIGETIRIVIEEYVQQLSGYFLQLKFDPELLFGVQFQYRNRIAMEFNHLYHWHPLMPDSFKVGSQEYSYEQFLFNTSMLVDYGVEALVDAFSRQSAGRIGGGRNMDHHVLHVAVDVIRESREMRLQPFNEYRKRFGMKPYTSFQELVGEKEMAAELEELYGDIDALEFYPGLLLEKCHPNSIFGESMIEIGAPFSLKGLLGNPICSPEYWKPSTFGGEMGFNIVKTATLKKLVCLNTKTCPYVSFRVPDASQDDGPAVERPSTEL

[6] = test system: all tested receptors, transporters, and binding sites; test: NIMH-PDSP radioligand binding screen, whole panel; details: 10 μM; except the sites named for 17 and 27
[7] = Chart 1; cited from earlier work
COX-2 [8] = target: COX-2; parameters: method as in literature cited in the text (18-30); details: Chart 1; ref literature cited in the text (18-30); cited from earlier work
COX-2 [9] = details: Chart 1; PET in vivo; ref literature cited in the text (18-30); cited from earlier work

T2 sequence (P23219 24-599): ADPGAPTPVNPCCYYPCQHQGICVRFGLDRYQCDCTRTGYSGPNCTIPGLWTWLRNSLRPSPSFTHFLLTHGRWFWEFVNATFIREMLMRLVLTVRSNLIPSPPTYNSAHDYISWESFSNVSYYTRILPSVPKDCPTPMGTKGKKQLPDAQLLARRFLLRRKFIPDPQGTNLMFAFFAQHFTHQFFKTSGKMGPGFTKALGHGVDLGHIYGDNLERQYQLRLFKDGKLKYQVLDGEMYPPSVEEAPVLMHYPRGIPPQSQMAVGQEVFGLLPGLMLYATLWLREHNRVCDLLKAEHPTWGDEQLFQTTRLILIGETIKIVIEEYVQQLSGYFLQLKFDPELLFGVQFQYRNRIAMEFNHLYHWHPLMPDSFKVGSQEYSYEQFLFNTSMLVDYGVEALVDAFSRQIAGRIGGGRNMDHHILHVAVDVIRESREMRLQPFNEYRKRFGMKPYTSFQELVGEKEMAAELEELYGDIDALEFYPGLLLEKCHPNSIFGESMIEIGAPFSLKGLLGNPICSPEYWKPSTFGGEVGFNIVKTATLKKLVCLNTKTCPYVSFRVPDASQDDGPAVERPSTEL
Sequence of 5-HT1B (P28222 whole entry): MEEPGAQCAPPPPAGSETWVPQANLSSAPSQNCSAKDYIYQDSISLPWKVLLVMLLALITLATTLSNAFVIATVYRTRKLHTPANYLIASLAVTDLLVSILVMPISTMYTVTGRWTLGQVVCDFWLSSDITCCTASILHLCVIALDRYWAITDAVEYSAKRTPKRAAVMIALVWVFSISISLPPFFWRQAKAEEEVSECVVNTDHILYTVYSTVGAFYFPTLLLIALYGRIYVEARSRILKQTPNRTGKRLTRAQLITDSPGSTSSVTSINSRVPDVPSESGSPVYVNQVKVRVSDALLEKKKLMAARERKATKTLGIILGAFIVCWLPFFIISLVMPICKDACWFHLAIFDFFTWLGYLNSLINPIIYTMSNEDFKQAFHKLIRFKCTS
Sequence of DAT (dopamine transporter) (Q01959 whole entry, species assumed): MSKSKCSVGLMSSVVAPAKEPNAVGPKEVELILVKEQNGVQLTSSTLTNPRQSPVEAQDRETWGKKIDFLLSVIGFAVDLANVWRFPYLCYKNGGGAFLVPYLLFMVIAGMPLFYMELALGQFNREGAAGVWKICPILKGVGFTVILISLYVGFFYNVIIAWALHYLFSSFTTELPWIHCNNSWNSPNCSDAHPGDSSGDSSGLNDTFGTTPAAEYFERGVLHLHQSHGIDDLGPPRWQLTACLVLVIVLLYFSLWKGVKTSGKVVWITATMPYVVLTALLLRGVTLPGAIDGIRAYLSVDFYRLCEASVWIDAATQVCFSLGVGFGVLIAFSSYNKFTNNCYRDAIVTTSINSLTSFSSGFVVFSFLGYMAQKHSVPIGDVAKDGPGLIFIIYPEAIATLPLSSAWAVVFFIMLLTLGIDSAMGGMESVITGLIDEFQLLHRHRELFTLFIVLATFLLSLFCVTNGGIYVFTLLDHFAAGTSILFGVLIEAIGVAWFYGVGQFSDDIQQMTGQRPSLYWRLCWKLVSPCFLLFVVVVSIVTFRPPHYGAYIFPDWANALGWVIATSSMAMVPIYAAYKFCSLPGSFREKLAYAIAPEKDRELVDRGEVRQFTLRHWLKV

COc1cc(NCc2cccs2)nc(-c2ccc(S(C)(=O)=O)cc2)n1 [Compound 17, 6-Methoxy-2-(4-(methylsulfonyl)phenyl)-N-(thiophen-2-ylmethyl)pyrimidin-4-amine]
IC50 (COX-2 [1]): 2.58 ± 0.23 nM | melting point: 139 to 141 °C | inhibition of radioligand binding at benzodiazepine (BzP) (benzodiazepine (BzP)): 50.6% | inhibition at 10 µM [2]: 53.7% | IC50 (human COX-2; Table 1, human whole blood COX-2, SEM <15%, read-out: HWB IC50): […] | IC50 (human COX-2; footnote c, SE <15%, read-out: IC50 COX-2 Human WB (literature) (converted)): […] | IC50 (COX-1 [3]): > 1000 nM | IC50 (COX-1 [4]): > 8800 nM | inhibition at 10 µM (5-HT1B): 50% | IC50 (COX-1 [5]): > 1000 nM | inhibition of radioligand binding at all tested receptors, transporters, and binding sites [6]: less than 50%

CS(=O)(=O)c1ccc(-c2cc(C(F)(F)F)nc(NCc3ccc([18F])cc3)n2)cc1 [[^18F]10, [^18F]pyricoxib]
logD [7]: 3.37

CS(=O)(=O)c1ccc(-c2ccsc2-c2ccc([18F])cc2)cc1 [[^18F]9, [^18F]desbromo-DuP-697]
logP [7]: 3.72 | Ki (COX-2 [8]): 250 nM | brain entry (COX-2 [9]): Brain penetrant
